Experiment: Change in fragrance compound concentration during the indole inhibition test (GC-MS at start and after 24 hours)
Type: physicochemical
Details: in fresh human urine, room temperature; for Decrease in Fragrance Compounds after 24 hours (%) >60%: category >60%; for Decrease in Fragrance Compounds after 24 hours (%) 0-30%: category 0-30%
Protocol: Advantageously, the appropriate fragrance compounds may be selected by using the following preferred indole inhibition test which comprises the following steps: • A) 0.02g of fragrance and 0.02g of Tergitol 15-s-12 was added to 7g of fresh human urine in a 20 ml Headspace vial sealed with a PTFE faced septum and well mixed for 10 minutes using a magnetic stirrer. For a blank to test the suitability of a batch of fresh human urine, 7g of human urine was used with 0.02g of demineralised water and 0.02g of Tergitol 15-s-12. If a control was required, to test the efficacy of product base for example, the control contained 7g of human urine to which was added 0.02g of fragrance, minus the active agents and 0.02g of Tergitol 15-s-12. • B) The vials are placed in an autosampler tray at room temperature. • C) At different times the headspace in the vials is sampled for 5 minutes at 35°C by an SPME fibre (PDMS fibre ex Supelco) after 10 minutes at 35°C (incubation time). • D) The SPME fibre is desorbed 1 minute at 265°C from a CTC Combipal autosampler and injected in splitless mode onto an Agilent GC-MS 5973N with a HP-INNOWAX column (30m x 0.25 x 0.25). (Oven conditions : 50°C during 2min - to 250°C at 10°C/min - 250°C during 5 minutes). • E) Under the above GC-MS conditions, indole has a retention time of 19.14 minutes, and can be recognised by its characteristic ions (m/z 117, m/z 89 and m/z 90). • F) In the range of values determined in this work, the area of the indole peak (117) is linearly related to the actual concentration in the vial, and was used without further correction to establish the concentration of indole in "Active" and "Blank" and if present any "Control" fragrances. • G) The material is deemed to be active if the indole concentration in the test sample is below 0.01ppm (wt/wt) after 24 hours incubation at room temperature and the indole in the blank samples is between 0.25ppm (wt/wt) and 1.25ppm (wt/wt) indole after 24 hours storage at room temperature. • H) The change in the active ingredient concentration is determined by comparing measurements at the start of the experiment and after 24 hours using appropriate characteristic ions.
This can be determined by measuring the fragrance concentration in the sample containing the test cocktail at the start and end of the indole inhibition test as described in step I of the test. If the difference between the measurements is less than 60% preferably less than 30% then the material is considered as not to have changed sufficiently to alter the fragrance note and to be particularly preferred.
A sample of fresh human urine is divided into equal portions and a fragrance containing one or more of the effective materials was added as described in the Indole Inhibition Test. […] The samples were stored and after 24 hours the indole content and fragrance active content is measured by gas chromatography with mass spectrometric (GCMS) detection. Those formulations containing active ingredients prevented the formation of indole while both the unfragranced and the alcohol containing control samples had much greater quantities of indole present. Also for the active compounds a GCMS measurement indicated the extent to which the compound was itself consumed as part of the process. In table 2 the decrease in fragrance components has been classified into 3 categories and the letter Y indicates the appropriate category for the compounds which have been measured. The absence of a letter Y in any category means that the decrease has not been measured for that compound. Table 2. Examples of effective materials

Structure (SMILES) | Decrease in Fragrance Compounds after 24 hours (%) 0-30% | further results
CCCCCCCCCCC=O [Aldehyde C11] | – | Decrease in Fragrance Compounds after 24 hours (%) >60%: Y (Y= Yes)
O=Cc1ccccc1 [Benzaldehyde] | Y (Y= Yes) | –
O=C/C=C/c1ccccc1 [Cinnamic aldehyde] | Y (Y= Yes) | –
CC(C)=CCCC(C)=CC=O [Citral] | Y (Y= Yes) | –
C=C(C)C1CC=C(C=O)CC1 (stereo not shown) [Perilla aldehyde] | Y (Y= Yes) | –
CCC/C=C/C=O [Trans 2 hexenal] | – | Decrease in Fragrance Compounds after 24 hours (%) 0-60% (category 0-60%): Y (Y= Yes)
CCc1occc(=O)c1O [Veltol Plus] | – | Decrease in Fragrance Compounds after 24 hours (%) >60%: Y (Y= Yes)

Source: patent publication EP1884251A1, “Use of fragrance compositions for the prevention of the development of indole based malodours from faecal and urine based soils” (Takasago International Corporation, priority 2006, dated 2008)
